No end group written: not given here.
Assays:
RhoA = experiment: thrombin induced RhoA activation in HUVEC culture (Rho pull-down, Western blot); assay type: cell-based, human; conditions: 5 U/ml thrombin alone, 5 min
Procedure: The biological effect of the compounds was established in a model thrombin induced RhoA activation in human umbilical vein endothelial cell (HUVEC) culture.
HUVEC are grown to confluence under standard conditions. Before induction of Rho activity HUVEC were starved for 4 h by using IMDM (Gibco) without growth factor and serum supplements. After the starvation period 5 U/ml Thrombin (Calbiochem) or 5 U thrombin plus 50 μg/ml of test compound are added to the starvation medium for 1, 5 and 10 min. Active RhoA was isolated using Rho Assay Reagent from Upstate according to manufactures instructions. Isolates were separated on a 15% polyacrylamid gel and blotted on Nitrocellulose-Membrane (Bio-Rad). RhoA was dedected by using Anti-Rho (-A, -B, -C), clone55 from Upstate (1:500).

[1] = target: T1, vascular endothelial (VE) cadherin (human, UniProt P33151 48-784); experiment: cell-based or functional assay
T1 sequence (looked up): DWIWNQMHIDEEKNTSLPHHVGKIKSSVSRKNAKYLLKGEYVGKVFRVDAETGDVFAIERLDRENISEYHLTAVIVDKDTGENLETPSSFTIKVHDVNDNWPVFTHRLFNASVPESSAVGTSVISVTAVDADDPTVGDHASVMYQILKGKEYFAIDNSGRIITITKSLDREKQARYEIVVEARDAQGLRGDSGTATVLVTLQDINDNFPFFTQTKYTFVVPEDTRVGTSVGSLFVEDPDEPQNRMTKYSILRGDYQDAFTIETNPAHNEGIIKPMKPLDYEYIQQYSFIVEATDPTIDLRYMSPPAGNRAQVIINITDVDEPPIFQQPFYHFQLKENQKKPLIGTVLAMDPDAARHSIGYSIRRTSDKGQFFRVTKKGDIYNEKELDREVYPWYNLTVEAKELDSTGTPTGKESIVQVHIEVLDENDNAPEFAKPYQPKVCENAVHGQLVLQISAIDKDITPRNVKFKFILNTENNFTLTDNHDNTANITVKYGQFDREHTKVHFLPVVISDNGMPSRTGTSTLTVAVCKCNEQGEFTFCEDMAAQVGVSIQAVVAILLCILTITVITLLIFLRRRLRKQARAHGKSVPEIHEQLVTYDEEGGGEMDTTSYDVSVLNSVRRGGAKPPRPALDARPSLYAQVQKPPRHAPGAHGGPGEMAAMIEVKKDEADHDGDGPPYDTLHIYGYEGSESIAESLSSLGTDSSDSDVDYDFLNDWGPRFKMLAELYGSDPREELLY

thrombin
Relative RhoA stimulation compared to unstimulated control (RhoA): 3.8

GHRPLDKKREEAPSLRPAPPPISGG-OH
Relative RhoA stimulation compared to unstimulated control [1]: 0.85 fold of unstimulated control

From patent US20090286725A1, “PEPTIDES AND DERIVATIVES THEREOF, THE MANUFACTURING THEREOF AS WELL AS THEIR USE FOR PREPARING A THERAPEUTICALLY AND/OR PREVENTIVELY ACTIVE PHARMACEUTICAL COMPOSITION” (FIBREX MEDICAL RESEARCH & DEVELOPMENT GMBH, priority 2008, published 2009)
